In ChEMBL document CHEMBL1773059, “NMS-P937, a 4,5-dihydro-1H-pyrazolo[4,3-h]quinazoline derivative as potent and selective Polo-like kinase 1 inhibitor” (Bioorg Med Chem Lett, 2011):
pIC50: −log10 of the molar value. ≈ marks a conversion by molar mass, not a printed value. Calls of active or inactive are those of the source. The calls are words filed in the database; no cut-off is given here.

Experiments:
[1] = target: Serine/threonine-protein kinase PLK1 (Homo sapiens, UniProt P53350); test: Inhibition of PLK1 assessed as [33P]gamma-ATP incorporation into substrate after 60 mins by gamma counting
[2] = target: Serine/threonine-protein kinase PLK2 (Homo sapiens, UniProt Q9NYY3); test: Inhibition of PLK2 assessed as [33P]gamma-ATP incorporation into substrate after 60 mins by gamma counting
[3] = target: Serine/threonine-protein kinase PLK3 (Homo sapiens, UniProt Q9H4B4); test: Inhibition of PLK3 assessed as [33P]gamma-ATP incorporation into substrate after 60 mins by gamma counting
A2780 = test: Antiproliferative activity against human A2780 cells
[4] = Solubility of compound at pH 7; format: physicochemical; settings: buffer
[5] = Solubility of compound in 10% Tween 80; format: physicochemical
Caco-2 = test: Apparent permeability of the compound across human Caco2 cells; format: ADME, cell-based
[6] = Apparent permeability of the compound by PAMPA assay; format: ADME
[7] = Intrinsic clearance in rat hepatocytes at 1 uM; format: ADME, cell-based, Liver, Hepatocyte
[8] = Intrinsic clearance in human liver microsomes at 1 uM; format: ADME, Microsome
Mus musculus [9] = test: Toxicity in CD1 nu/nu mouse xenografted with human HCT116 cells assessed as reversible body weight loss at 30 mg/kg, iv BID administered on days 1 to 2 in weekly scheduling for 3 cycles measured on day 30; format: organism-based, HCT-116; parameters: dose 30 mg/kg, route intravenous; settings: in vivo
Mus musculus [10] = test: Toxicity in CD1 nu/nu mouse xenografted with human HCT116 cells assessed as reversible body weight loss at 90 mg/kg, po once daily administered on days 1 to 2 in weekly scheduling for 4 cycles measured on day 15; settings: in vivo
HCT-116 = test: Antitumor activity against human HCT116 cells xenografted in CD1 nu/nu mouse assessed as tumor growth inhibition at 90 mg/kg, po once daily administered on days 1 to 2 daily in weekly scheduling for 4 cycles measured on day 18; settings: HCT-116, po, 432 h, read-out: TGI
CAL-51 = test: Cell cycle arrest in human CAL51 cells at 0.1 to 1 uM after 24 hrs by flow cytometry; format: functional, cell-based
[11] = AUC (infinity) in overnight fasted CD1 nu/nu mouse at 10 mg/kg, iv; format: ADME, organism-based; parameters: time infinity, dose 10 mg/kg, route intravenous; settings: plasma
[12] = Clearance in overnight fasted CD1 nu/nu mouse at 10 mg/kg, iv; format: ADME, organism-based; parameters: dose 10 mg/kg, route intravenous; settings: in vivo
[13] = Volume of distribution at steady state in overnight fasted CD1 nu/nu mouse at 10 mg/kg, iv; format: ADME, organism-based; parameters: dose 10 mg/kg, route intravenous; settings: in vivo, read-out: Vdss
[14] = Half life in overnight fasted CD1 nu/nu mouse at 10 mg/kg, iv; format: ADME, organism-based; parameters: dose 10 mg/kg, route intravenous; settings: in vivo
[15] = Cmax in overnight fasted CD1 nu/nu mouse at 10 mg/kg, po; format: ADME, organism-based; parameters: dose 10 mg/kg, route oral; settings: in vivo
[16] = AUC (infinity) in overnight fasted CD1 nu/nu mouse at 10 mg/kg, po; format: ADME, organism-based; parameters: time infinity, dose 10 mg/kg, route oral; settings: plasma
[17] = Half life in overnight fasted CD1 nu/nu mouse at 10 mg/kg, po; format: ADME, organism-based; parameters: dose 10 mg/kg, route oral; settings: in vivo
[18] = Oral bioavailability in overnight fasted CD1 nu/nu mouse at 10 mg/kg; format: ADME, organism-based; settings: in vivo

Serine/threonine-protein kinase PLK2, sequence (Q9NYY3 whole entry): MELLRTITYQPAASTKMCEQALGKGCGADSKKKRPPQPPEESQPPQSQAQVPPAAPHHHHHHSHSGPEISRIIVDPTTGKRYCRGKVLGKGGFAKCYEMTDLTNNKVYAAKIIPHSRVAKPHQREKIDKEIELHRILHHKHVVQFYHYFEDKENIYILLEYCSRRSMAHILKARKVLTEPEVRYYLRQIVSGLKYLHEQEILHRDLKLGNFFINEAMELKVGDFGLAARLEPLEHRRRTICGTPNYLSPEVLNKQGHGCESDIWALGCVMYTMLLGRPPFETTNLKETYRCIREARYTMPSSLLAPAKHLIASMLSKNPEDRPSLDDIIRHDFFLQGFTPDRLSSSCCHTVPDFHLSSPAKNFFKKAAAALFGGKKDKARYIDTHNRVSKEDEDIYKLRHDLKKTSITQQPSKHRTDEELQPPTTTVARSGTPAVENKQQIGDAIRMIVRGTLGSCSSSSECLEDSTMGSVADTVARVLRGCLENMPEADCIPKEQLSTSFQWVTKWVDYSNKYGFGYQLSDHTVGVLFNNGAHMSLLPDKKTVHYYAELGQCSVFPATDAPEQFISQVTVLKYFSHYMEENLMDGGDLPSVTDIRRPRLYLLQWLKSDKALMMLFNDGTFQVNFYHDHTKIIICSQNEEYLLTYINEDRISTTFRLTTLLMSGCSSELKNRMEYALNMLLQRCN
Serine/threonine-protein kinase PLK3, sequence (Q9H4B4 whole entry): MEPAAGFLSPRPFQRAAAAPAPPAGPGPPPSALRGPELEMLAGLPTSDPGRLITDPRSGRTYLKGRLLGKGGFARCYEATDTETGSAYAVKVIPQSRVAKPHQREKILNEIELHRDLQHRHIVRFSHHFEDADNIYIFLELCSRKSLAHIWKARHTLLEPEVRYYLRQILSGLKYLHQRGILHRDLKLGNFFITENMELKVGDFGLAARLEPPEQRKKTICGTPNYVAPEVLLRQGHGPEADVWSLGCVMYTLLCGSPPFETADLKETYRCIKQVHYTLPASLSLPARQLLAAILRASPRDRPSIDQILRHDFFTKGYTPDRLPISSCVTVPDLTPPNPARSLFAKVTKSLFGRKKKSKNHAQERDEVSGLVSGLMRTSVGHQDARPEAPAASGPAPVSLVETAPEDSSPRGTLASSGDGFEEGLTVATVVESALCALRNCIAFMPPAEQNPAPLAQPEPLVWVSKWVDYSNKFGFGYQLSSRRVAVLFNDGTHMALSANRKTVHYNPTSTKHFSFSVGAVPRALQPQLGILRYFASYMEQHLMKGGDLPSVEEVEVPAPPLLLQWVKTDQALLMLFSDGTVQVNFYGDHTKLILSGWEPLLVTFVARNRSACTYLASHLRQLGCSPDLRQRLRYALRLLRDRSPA
Serine/threonine-protein kinase PLK1, sequence (P53350 whole entry): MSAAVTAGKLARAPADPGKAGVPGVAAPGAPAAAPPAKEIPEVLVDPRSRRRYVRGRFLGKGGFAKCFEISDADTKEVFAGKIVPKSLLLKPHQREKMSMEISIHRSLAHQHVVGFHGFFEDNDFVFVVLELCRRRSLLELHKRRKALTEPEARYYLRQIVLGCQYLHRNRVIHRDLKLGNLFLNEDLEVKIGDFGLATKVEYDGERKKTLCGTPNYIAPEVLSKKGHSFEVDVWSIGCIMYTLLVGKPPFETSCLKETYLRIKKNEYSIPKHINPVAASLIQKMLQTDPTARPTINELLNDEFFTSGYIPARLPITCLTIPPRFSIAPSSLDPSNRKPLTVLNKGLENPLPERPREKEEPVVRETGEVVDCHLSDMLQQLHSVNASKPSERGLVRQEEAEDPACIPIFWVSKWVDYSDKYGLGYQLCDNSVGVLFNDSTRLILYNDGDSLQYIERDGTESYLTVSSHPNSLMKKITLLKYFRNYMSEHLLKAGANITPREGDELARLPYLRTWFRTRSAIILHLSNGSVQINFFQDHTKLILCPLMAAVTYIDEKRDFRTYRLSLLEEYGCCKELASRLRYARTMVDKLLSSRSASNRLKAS

| Compound | pIC50 [1] | pIC50 [2] | pIC50 [3] | pIC50 (A2780) | solubility [4] [µM] | further results |
| --- | --- | --- | --- | --- | --- | --- |
| CN(C)CCCn1nc(C(N)=O)c2c1-c1nc(Nc3cc(N4CCN(C)CC4)ccc3OC(F)(F)F)ncc1CC2 | 6.55 | < 5.00 | < 5.00 | 5.60 | 200 (≈ 115 µg/mL) |  |
| Cn1nc(C(N)=O)c2c1-c1nc(Nc3cc(NC(=O)[C@@H]4CCCN4)ccc3OC(F)(F)F)ncc1CC2 |  | 5.84 |  | 6.46 | 79 (≈ 40.8 µg/mL) |  |
| CN1CCC(c2ccc(OC(F)(F)F)c(Nc3ncc4c(n3)-c3c(c(C(N)=O)nn3C)CC4)c2)CC1 | 8.22 | < 5.00 | < 5.00 |  | 203 (≈ 102 µg/mL) | solubility [5]: 3800 µg/mL (≈ 7.58 mM); Papp (Caco-2): permeable; Papp [6]: 36.8 ×10⁻⁶ cm/s; CLint scaled at 1 µM [7]: 603 mL/min/kg; CLint scaled at 1 µM [8]: 15.9 mL/min/kg |
| CN1CCN(c2ccc(OC(F)(F)F)c(Nc3ncc4c(n3)-c3c(c(C(N)=O)nn3C)CC4)c2)CC1 |  |  |  |  |  | Papp (Caco-2): permeable; CLint scaled at 1 µM [7]: 600 mL/min/kg; Activity (Mus musculus [9]): 14%; Activity (Mus musculus [10]): 14%; inhibition in vivo at 90 mg/kg (HCT-116): 59% |
| CN1CC=C(c2ccc(OC(F)(F)F)c(Nc3ncc4c(n3)-c3c(c(C(N)=O)nn3C)CC4)c2)CC1 |  | 5.65 |  | 7.47 | 148 (≈ 73.9 µg/mL) | solubility [5]: 3700 µg/mL (≈ 7.41 mM); Papp (Caco-2): permeable; Papp [6]: 46.4 ×10⁻⁶ cm/s; CLint scaled at 1 µM [7]: 638 mL/min/kg; CLint scaled at 1 µM [8]: 24.5 mL/min/kg |
| CN1CCN(c2ccc(OC(F)(F)F)c(Nc3ncc4c(n3)-c3c(c(C(N)=O)nn3CCCN)CC4)c2)CC1 | 7.28 | < 5.00 | < 5.00 | 6.07 | 186 (≈ 101 µg/mL) | Papp [6]: 4 ×10⁻⁶ cm/s |
| CCN(CC)CCN(C)c1ccc(OC(F)(F)F)c(Nc2ncc3c(n2)-c2c(c(C(N)=O)nn2C)CC3)c1 | 7.22 | < 5.00 | < 5.00 | 5.94 | 162 (≈ 86.3 µg/mL) |  |
| CN1CCN(CCCNc2ccc(OC(F)(F)F)c(Nc3ncc4c(n3)-c3c(c(C(N)=O)nn3C)CC4)c2)CC1 |  | 5.87 |  | 5.79 | 186 (≈ 104 µg/mL) |  |
| CN1CCN(c2ccc(OC(F)(F)F)c(Nc3ncc4c(n3)-c3c(c(C(N)=O)nn3CCOC3CCCCO3)CC4)c2)CC1 (stereo not given) |  | < 5.00 |  |  | 35 (≈ 21.6 µg/mL) |  |
| CN1CCN(c2ccc(OC(F)(F)F)c(Nc3ncc4c(n3)-c3c(c(C(N)=O)nn3CCN)CC4)c2)CC1 | 7.48 | < 5.00 | < 5.00 | 5.88 | 202 (≈ 107 µg/mL) | Papp [6]: 5 ×10⁻⁶ cm/s |
| CN1CCN(c2ccc(OC(F)(F)F)c(Nc3ncc4c(n3)-c3c(c(C(N)=O)nn3CCO)CC4)c2)CC1 |  |  |  |  |  | Activity (CAL-51): Active |
| CN1CCC(C(=O)Nc2ccc(OC(F)(F)F)c(Nc3ncc4c(n3)-c3c(c(C(N)=O)nn3C)CC4)c2)CC1 |  | 5.82 |  | 5.87 | 33 (≈ 18 µg/mL) |  |
| CN1CCN(c2ccc(OC(F)(F)F)c(Nc3ncc4c(n3)-c3c(c(C(N)=O)nn3CCO)CC4)c2)CC1.Cl |  |  |  |  |  | AUC(0-inf) [11]: 8.57 µM·h; clearance [12]: 39.3 mL/min/kg; Vd [13]: 1.71 L/kg; half-life [14]: 0.89 h; Cmax [15]: 640 nM; AUC(0-inf) [16]: 2.04 µM·h; half-life [17]: 1.6 h; bioavailability [18]: 24% |
| CN1CCN(c2ccc(OC(F)(F)F)c(Nc3ncc4c(n3)-c3c(c(C(N)=O)nn3C)CC4)c2)[C@@H](CO)C1 |  | < 5.00 |  | 6.22 | 121 (≈ 64.4 µg/mL) |  |
| CN1CCN(c2ccc(OC(F)(F)F)c(Nc3ncc4c(n3)-c3c(c(C(N)=O)nn3C)CC4)c2)[C@H](CO)C1 |  | 5.83 |  | 5.79 | 166 (≈ 88.4 µg/mL) |  |
